Results from article PMC3091812 (Neuropeptides, 2011).

Key:
HEK-293 cells [1] = assay: Caspase-3 activity assay, protection from staurosporine; format: cell-based, Human; details: 1 μM staurosporine, 12 hours, vs citrate buffer control
HEK-293 cells [2] = assay: Caspase-3 activity assay, protection from 3-nitropropionate; format: cell-based, Human; details: 8 mM 3-NP, 12 hours, over control

Structure (SMILES) | increase of caspase-3 activity by toxin (HEK-293 cells [1]) | increase of caspase-3 activity by toxin (HEK-293 cells [2])
CN[C@@H]1C[C@H]2O[C@@](C)([C@@H]1OC)n1c3ccccc3c3c4c(c5c6ccccc6n2c5c31)C(=O)NC4 [staurosporine] | approximately 80% | –
O=C(O)CC[N+](=O)[O-] [3-NP, 3-nitropropionate] | – | approximately 100%
